Measurements reported in patent US11306063B2, “Heterocyclic naphthoquinones derivatives for use in the treatment of cancers including Cushing disease” (Commissariat a l'Energie Atomique et aux Energies …, priority 2016, dated 2022).
Read-outs that look alike come from different tables or passages of the source.

How the values were obtained:
[1] = system: MESSA DX5 cells; assay: Cytotoxicity assay (PrestoBlue cell viability), MESSA DX5; format: cell-based, human
Description: (§1) Messa, Messa DX5, HCT116, HEK-293, PC-3, LNCaP, HCC827 and H1975 cell lines are issued from the American Type Culture Collection (ATCC).
(§2) Messa, Messa DX5 and HCT116 were maintained in McCoy's supplemented with 10% fetal bovine serum, and 1% penicillin/streptomycin. PC-3, LNCaP cells were maintained in RPMI medium supplemented with 10% fetal bovine serum, and 1% penicilin/streptomycin and in the case of Messa DX5: 500 nM Doxorubicin was added to maintain selection pressure. HEK293 were maintained in DMEM medium supplemented with 10% fetal bovine serum, and 1% penicillin/streptomycin. Cells were maintained at 37° C. with 5% CO2, 95% air, and humid atmosphere. In the case of hormonal dependent LNCaP cells, 2 μM DiHydroTestosterone (DHT) was added or not—depending on the type of biological assay—for the same incubation period as compounds.
(§3) For cytotoxicity assays, cells were seeded in 96-well microplates 24 hours before the addition of increasing concentrations of each compound in the culture medium. Cell viability was analyzed 48 hours following addition of each compound through the monitoring of mitochondrial […] activity using PrestoBlue® Cell Viability Reagent (Invitrogen; #A-13261). Paclitaxel was used as a control which is cytotoxic on various cancerous cells although not on chemoresistant MESSA DX5 lineage.

[2] = system: MESSA cells; assay: Cytotoxicity assay (PrestoBlue cell viability), MESSA; format: cell-based; details: Homo sapiens, MES-SA; 48 hours treatment; concentration inducing 50% cell mortality
Description: as §1, §2, §3

[3] = target: T1, USP8^CD (purified catalytic domain of USP8) (Homo sapiens, UniProt P40818); assay: Inhibition of purified USP8^CD enzymatic activity (Ub-AMC or Ub-Rho substrate); format: biochemical; details: for inhibition at 1 µM: 1 μM compound
T1 construct: the purified catalytic domain of USP8 (USP8^CD, in-house purified); made in house; host or cells: E. coli BL21 Gold
T1 sequence (P40818 777-1109 limits assumed): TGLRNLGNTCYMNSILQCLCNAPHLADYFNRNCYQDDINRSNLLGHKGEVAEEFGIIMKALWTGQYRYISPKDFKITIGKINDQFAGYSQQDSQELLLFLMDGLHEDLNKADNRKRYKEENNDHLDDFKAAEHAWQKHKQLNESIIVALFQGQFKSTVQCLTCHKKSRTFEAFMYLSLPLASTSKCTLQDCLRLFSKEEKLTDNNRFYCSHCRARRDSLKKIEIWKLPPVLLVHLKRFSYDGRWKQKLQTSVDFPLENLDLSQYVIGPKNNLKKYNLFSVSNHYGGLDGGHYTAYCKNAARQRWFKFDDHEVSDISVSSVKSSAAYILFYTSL
Description: (§4) USP2CD or USP8CD were expressed in E. coli BL21 Gold. Cells were grown in LB Miller to mid-log phase and induced by addition of 0.5 mM IPTG for USP2CD for 5 h at 20° C., while 1 mM IPTG was added for USP8CD for 3 h at 37° C. Then, cells were harvested and frozen at −80° C.
For His-tagged USP8CD, cells were resuspended in buffer A (50 mM TRIS pH 8.0, 500 mM NaCl, 2 mM Imidazole) and lysed using a sonicator. The lysate was clarified by centrifugation and applied to Ni Sepharose6 Fast Flow resin (GE Healthcare). The resin was sequentially washed first with buffer A containing 10 mM Imidazole then with buffer A containing 20 mM Imidazole, and finally with buffer A containing 50 mM Imidazole. Protein sample was eluted from the resin using buffer A containing 300 mM Imidazole. The eluted protein was buffer exchanged by gel-filtration on a Superdex 200 10/300 GL column (GE Healthcare) equilibrated in Buffer B (20 mM HEPES pH 7.5, 300 mM NaCl, 2 mM dithiothreitol (DTT)).
(§5) Enzymatic assay was performed in a HEPES buffer (50 mM pH7.6 1 mM DTT, 2% glycerol, 0.5 mM EDTA) or in a Tris buffer (40 mM pH7.4 1 mM DTT, 5% glycerol, 0.05 mg/ml BSA) respectively, following manufacturer's instructions. Compounds were added to the reaction mixture just prior to the substrate. The enzymatic reaction kinetics was monitored through the apparition of fluorescence due to the hydrolysis of the peptidyl Ub-AMC or Ub-Rho bound over 20 or 30 minutes.
(§6) Medium value out of duplicates is reported.

[4] = target: T2, USP2 full length (USP2^FL) (Homo sapiens, UniProt O75604); assay: Inhibition of Ub-AMC hydrolysis by USP2 full length; format: biochemical; details: Ub-AMC at 1 μM, Table 1a; for inhibition at 1 µM: 1 μM compound; for inhibition at 5 µM: 5 μM compound; for inhibition at 25 µM: 25 μM compound; for inhibition at 50 µM: 50 μM compound
T2 construct: purchased BioSciences 80352
T2 sequence (O75604 1-605): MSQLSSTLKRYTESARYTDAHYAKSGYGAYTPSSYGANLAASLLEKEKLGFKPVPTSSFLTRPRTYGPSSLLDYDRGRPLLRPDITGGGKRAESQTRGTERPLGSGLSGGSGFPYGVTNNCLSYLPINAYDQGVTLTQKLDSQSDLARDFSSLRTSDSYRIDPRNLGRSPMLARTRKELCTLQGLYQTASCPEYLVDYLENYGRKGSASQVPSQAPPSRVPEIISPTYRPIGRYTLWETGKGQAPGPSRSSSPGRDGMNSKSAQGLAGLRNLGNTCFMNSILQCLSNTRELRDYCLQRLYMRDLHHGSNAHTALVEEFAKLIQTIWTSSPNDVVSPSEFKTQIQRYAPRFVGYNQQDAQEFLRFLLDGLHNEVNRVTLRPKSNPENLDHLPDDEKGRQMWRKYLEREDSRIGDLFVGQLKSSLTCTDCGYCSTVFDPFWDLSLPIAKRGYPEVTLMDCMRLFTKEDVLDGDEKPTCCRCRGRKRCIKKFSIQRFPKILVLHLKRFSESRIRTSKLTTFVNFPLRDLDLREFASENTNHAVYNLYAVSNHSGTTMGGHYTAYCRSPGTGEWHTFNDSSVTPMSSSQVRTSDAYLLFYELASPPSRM
Description: as §5

[5] = target: T3, USP2^CD (purified catalytic domain of USP2) (Homo sapiens, UniProt O75604); assay: Inhibition of purified USP2^CD enzymatic activity (Ub-AMC or Ub-Rho substrate); format: biochemical
T3 construct: The purified catalytic domain of USP2 (USP2^CD, in-house purified); His; made in house; host or cells: E. coli BL21 Gold
T3 sequence (O75604 267-599 limits assumed): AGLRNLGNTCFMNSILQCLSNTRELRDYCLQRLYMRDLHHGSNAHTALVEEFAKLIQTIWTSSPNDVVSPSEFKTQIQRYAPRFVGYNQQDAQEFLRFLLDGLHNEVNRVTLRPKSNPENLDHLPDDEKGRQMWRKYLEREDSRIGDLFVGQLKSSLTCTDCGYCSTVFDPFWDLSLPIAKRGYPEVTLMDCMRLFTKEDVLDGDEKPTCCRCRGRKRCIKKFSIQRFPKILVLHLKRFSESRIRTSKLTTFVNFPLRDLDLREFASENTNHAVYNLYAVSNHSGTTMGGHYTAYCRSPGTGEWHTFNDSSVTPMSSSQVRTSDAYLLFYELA
Description: as §4
For His-tagged USP2CD, cells were resuspended in buffer C (10 mM TRIS pH 8.0, 100 mM NaCl, 10 mM Imidazole) and lysed using a sonicator. The lysate was clarified by centrifugation and applied to Ni Sepharose6 Fast Flow resin (GE Healthcare). The resin was sequentially washed with buffer C, then with buffer C containing 50 mM Imidazole. Protein sample was eluted from the resin using buffer C containing 250 mM Imidazole. The eluted protein was buffer exchanged by gel-filtration on a Superdex 200 10/300 GL column (GE Healthcare) equilibrated in Buffer D (15 mM Bis-TRIS pH 6.0, 100 mM NaCl, 1 mM dithiothreitol (DTT)).
as §5, §6

[6] = 0.1 μM compound, Ub-AMC at 1 μM, Table 1a
[7] = 0.5 μM compound, Ub-AMC at 1 μM, Table 1a
[8] = 5 μM compound, Ub-AMC at 1 μM, Table 1a
[9] = 25 μM compound, Ub-AMC at 1 μM, Table 1a
[10] = 50 μM compound, Ub-AMC at 1 μM, Table 1a
[11] = Ub-AMC substrate at 1 μM, Table 2b, read-out: IC50 USP8 CD
[12] = Ub-AMC substrate at 1 μM, Table 2b, read-out: IC50 USP2 CD

SMILES	USP8^CD % inhibition [3, 6]	USP8^CD % inhibition [3, 7]	inhibition at 1 µM ([3]; Ub-AMC at 1 μM, Table 1a)	USP8^CD % inhibition [3, 8]	USP8^CD % inhibition [3, 9]	USP8^CD % inhibition [3, 10]	inhibition at 1 µM [4]	inhibition at 5 µM [4]	inhibition at 25 µM [4]	inhibition at 50 µM [4]	other results
CC(=O)O[C@H]1C(=O)[C@@]2(C)[C@H]([C@H](OC(=O)c3ccccc3)[C@]3(O)C[C@H](OC(=O)[C@H](O)[C@@H](NC(=O)c4ccccc4)c4ccccc4)C(C)=C1C3(C)C)[C@]1(OC(C)=O)CO[C@@H]1C[C@@H]2O [Paclitaxel, reference compound]	–	–	–	–	–	–	–	–	–	–	EC50 ([1]; Homo sapiens, MES-SA/Dx5, 48 hours treatment, chemoresistant line): > 100000 nM; MESSA-DX5 cells death ([1]; high concentration (100 μM)): did not induce MESSA-DX5 cells death; EC50 [2]: 1500 nM
O=C1c2ccccc2C(=O)c2nc(CS(=O)(=O)c3ccc(F)cc3)c(CS(=O)(=O)c3ccc(F)cc3)nc21 [PCR7993]	0%	16%	34%	22%	101%	102%	29%	59%	58%	98%	–
O=C1c2ccccc2C(=O)c2nc(CCl)c(CCl)nc21 [PCR8146]	11%	35%	6%	43%	90%	100%	30%	50%	89%	99%	IC50 [3, 11]: 2100 nM; IC50 [5, 12]: 6000 nM
CC/C=C/c1nc2c(nc1/C=C/CC)C(=O)c1ccccc1C2=O [PCR8156]	6%	25%	7%	43%	100%	86%	0%	28%	58%	94%	–
O=C1c2ccccc2C(=O)c2nc(CS(=O)(=O)c3ccccc3)c(CS(=O)(=O)c3ccccc3)nc21 [PCR7986]	1%	13%	–	–	–	36%	46%	74%	78%	92%	–
Cc1cc(C)c(S(=O)(=O)Cc2nc3c(nc2CS(=O)(=O)c2c(C)cc(C)cc2C)C(=O)c2ccccc2C3=O)c(C)c1 [PCR7996]	–	–	10%	70%	100%	100%	25%	51%	85%	95%	–
O=C1c2ccccc2C(=O)c2nc(CS(=O)(=O)c3cccs3)c(CS(=O)(=O)c3cccs3)nc21 [PCR7997]	17%	3%	13%	61%	97%	100%	0%	22%	70%	99%	–
O=C1c2ccccc2C(=O)c2nc(CS(=O)(=O)c3ccc(Br)s3)c(CS(=O)(=O)c3ccc(Br)s3)nc21 [OVM16]	–	–	–	–	–	–	–	–	–	–	inhibition at 1 µM ([3]; Table 1b): 10%; inhibition at 5 µM ([3]; 5 μM compound, Table 1b): 56%; inhibition at 25 µM ([3]; 25 μM compound, Table 1b): 92%; inhibition at 50 µM ([3]; 50 μM compound, Table 1b): 104%; inhibition at 1 µM ([5]; 1 μM compound, Table 1b): 1%; inhibition at 5 µM ([5]; 5 μM compound, Table 1b): 26%; inhibition at 25 µM ([5]; 25 μM compound, Table 1b): 42%; inhibition at 50 µM ([5]; 50 μM compound, Table 1b): 80%
O=C1c2ccccc2C(=O)c2nc(CS(=O)(=O)c3ccc([N+](=O)[O-])cc3)c(CS(=O)(=O)c3ccc([N+](=O)[O-])cc3)nc21 [PCR7991]	42%	97%	98%	–	–	–	46%	79%	94%	93%	IC50 ([3]; Ub-Rhodamine substrate, Table 2a, read-out: IC50 against purified USP8^CD): 50 nM; IC50 ([5]; Ub-Rhodamine substrate, Table 2a, read-out: IC50 against purified USP2^CD): 1700 nM
O=C1c2ccccc2C(=O)c2nc(C=C3CCCC3)c(C=C3CCCC3)nc21 [PCR8153]	–	–	0%	22%	100%	100%	8%	54%	98%	98%	–
O=C1c2ccccc2C(=O)c2nc(CBr)c(CBr)nc21 [PCR8132]	–	–	–	–	–	–	–	–	–	–	IC50 [3, 11]: 4500 nM; IC50 [5, 12]: 17000 nM
Cc1ccc(S(=O)(=O)Cc2nc3c(nc2CS(=O)(=O)c2ccc(C)cc2)C(=O)c2ccccc2C3=O)cc1 [PCR7985]	1%	20%	55%	23%	61%	98%	33%	49%	59%	95%	–
